Holding throughout (assay type): cell-based
For one experiment, the target named is T1, TLR7 (Homo sapiens, UniProt Q9NYK1).
T1 sequence (Q9NYK1 27-1049): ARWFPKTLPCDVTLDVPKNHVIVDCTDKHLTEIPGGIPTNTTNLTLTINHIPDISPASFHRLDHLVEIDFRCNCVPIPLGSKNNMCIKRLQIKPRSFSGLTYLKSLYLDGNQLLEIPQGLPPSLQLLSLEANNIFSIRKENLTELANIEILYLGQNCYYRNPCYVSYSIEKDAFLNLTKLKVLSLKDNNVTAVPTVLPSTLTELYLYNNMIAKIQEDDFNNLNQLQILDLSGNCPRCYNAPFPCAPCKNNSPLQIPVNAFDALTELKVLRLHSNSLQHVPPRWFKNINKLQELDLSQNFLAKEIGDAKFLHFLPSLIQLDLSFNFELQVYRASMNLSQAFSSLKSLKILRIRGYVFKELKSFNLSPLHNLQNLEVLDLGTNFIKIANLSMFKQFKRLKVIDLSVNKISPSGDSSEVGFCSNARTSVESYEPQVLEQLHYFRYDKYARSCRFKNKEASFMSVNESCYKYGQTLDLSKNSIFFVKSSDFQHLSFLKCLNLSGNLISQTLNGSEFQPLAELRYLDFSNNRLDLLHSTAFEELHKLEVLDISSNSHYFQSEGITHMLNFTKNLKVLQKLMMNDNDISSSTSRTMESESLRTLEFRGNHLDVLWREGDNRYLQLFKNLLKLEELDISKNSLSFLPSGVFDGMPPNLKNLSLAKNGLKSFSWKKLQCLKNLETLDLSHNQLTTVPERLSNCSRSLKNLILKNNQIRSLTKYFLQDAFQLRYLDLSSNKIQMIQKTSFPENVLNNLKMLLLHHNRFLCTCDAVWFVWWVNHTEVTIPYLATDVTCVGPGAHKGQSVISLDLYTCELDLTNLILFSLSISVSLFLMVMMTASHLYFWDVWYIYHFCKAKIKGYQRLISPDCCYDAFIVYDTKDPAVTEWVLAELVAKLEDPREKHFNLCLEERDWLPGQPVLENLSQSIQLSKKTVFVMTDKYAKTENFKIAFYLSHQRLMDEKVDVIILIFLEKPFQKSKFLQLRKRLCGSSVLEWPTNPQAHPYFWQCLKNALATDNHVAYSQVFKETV
The experiment is described as follows: TLR7 EC50 assay. The settings on record: Table 2.

In a further experiment the target is T2, TLR8 (Homo sapiens, UniProt Q9NR97).
T2 sequence (Q9NR97 27-1041): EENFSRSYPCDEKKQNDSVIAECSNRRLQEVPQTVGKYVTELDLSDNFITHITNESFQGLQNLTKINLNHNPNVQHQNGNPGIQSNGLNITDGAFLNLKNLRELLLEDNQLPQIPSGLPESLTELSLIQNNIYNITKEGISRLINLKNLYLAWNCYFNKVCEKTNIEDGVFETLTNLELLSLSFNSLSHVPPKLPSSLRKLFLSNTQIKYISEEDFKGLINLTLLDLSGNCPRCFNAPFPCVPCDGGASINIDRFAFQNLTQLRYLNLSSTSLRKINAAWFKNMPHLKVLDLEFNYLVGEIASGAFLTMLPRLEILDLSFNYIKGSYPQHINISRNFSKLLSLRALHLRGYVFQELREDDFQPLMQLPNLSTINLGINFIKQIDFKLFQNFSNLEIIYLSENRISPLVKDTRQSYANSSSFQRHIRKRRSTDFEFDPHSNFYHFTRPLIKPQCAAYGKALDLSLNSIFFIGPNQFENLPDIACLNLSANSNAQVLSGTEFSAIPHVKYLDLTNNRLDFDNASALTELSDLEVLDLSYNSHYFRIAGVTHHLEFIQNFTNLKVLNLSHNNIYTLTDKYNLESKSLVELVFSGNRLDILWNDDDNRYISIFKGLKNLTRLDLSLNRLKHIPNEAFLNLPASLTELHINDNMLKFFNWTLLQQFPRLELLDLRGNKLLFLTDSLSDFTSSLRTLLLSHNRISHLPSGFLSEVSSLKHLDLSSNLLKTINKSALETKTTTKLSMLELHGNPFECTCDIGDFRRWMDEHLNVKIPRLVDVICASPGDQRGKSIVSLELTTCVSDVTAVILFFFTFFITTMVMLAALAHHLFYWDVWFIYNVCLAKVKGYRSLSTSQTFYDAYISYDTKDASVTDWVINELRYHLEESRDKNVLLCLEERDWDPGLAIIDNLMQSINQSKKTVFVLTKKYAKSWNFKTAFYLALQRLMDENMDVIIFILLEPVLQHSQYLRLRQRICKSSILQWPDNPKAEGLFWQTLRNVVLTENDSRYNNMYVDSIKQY
The experiment is described as follows: TLR8 EC50 assay. The conditions noted are these: Table 2.

The target in the next experiment is T3, hNLRP3 (Homo sapiens, UniProt Q96P20).
T3 construct: THP-1 cells were purchased from the American Type Culture Collection; host or cells: THP-1 cells, PMA-differentiated
T3 sequence (Q96P20 whole entry): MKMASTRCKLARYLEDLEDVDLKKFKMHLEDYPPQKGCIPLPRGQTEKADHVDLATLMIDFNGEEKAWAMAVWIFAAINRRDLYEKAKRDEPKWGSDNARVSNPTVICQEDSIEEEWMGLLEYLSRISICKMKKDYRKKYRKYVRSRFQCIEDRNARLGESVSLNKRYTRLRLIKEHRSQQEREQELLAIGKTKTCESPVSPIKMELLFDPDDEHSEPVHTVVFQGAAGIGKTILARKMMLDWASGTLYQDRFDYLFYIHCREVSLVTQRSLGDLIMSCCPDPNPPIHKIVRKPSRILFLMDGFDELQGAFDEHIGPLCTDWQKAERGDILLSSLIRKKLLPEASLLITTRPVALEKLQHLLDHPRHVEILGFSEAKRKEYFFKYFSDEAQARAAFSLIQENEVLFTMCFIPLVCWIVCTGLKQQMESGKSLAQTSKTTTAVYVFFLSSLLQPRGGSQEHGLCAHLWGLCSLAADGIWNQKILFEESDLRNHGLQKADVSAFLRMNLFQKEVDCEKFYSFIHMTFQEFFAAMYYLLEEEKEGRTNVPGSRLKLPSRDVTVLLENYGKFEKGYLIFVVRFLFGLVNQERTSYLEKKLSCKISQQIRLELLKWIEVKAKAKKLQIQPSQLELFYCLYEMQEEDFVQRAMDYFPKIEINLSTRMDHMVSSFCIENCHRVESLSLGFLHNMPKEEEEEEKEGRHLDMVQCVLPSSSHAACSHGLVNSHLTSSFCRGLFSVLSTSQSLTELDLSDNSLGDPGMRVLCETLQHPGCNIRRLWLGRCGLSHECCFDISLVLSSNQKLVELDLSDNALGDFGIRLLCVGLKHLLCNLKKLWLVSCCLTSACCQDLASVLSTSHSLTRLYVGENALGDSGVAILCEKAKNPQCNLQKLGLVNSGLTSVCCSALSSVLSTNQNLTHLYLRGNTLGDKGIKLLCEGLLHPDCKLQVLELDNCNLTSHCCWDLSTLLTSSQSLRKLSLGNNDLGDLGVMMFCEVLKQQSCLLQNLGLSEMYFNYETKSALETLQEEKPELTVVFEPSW
The experiment is described as follows: hNLRP3 agonist assay: IL-1β production in PMA-differentiated THP-1 cells (ELISA). The conditions noted are these: Table 2, 4 hours, IL-1β by ELISA. The method, then: THP-1 cells were purchased from the American Type Culture Collection and sub-cultured according to instructions from the supplier. Prior to experiments, cells were cultured in RPMI 1640 containing 10% heat inactivated FBS, penicillin (100 units/ml) and streptomycin (100 μg/ml), and maintained in log phase prior to experimental setup. Prior to the experiment THP-1 were treated with PMA (Phorbol 12-myristate 13-acetate) (10 μg/ml) for 24 hours. The day of the experiment the media was removed and attaching cells were treated with trypsin for 2 minutes, cells were then collected, washed with PBS (phosphate buffer saline), spin down, resuspended in 2% heat inactivated FBS with RPMI at a concentration of 1×10^6 cells/ml, and 100 μl was plated in a 96 well plate. Cells were incubated with compounds for 4 hours. Cell free supernatant was collected and the production of IL-1β was evaluated by ELISA. Compounds were dissolved in dimethyl sulfoxide (DMSO) and added to the culture medium to achieve desired concentration (e.g. 100, 30, 10, 3, 1, 0.3 or 0.1 μM). A vehicle only control was run concurrently with each experiment. Final DMSO concentration was 1%.
For orientation: An ELISA detects its analyte on a solid surface through an enzyme-linked reagent.

Take `Nc1nc2cc(-c3cc[nH]n3)ccc2c2[nH]c(CN3CCCC3)nc12` [Compound 233]: the figures for the EC50 on TLR7, at TLR8 and at hNLRP3 were above 100 µM, above 100 µM and at most 1 µM, respectively.

In the case of `Nc1nc2cc(N3CCCCC3)ccc2c2[nH]c(CCCO)nc12` [Compound 167, 3-(4-amino-7-piperidin-1-yl-1H-imidazo[4,5-c]quinolin-2-yl)propan-1-ol], the EC50 on TLR7, on TLR8 and on hNLRP3 was above 100 µM throughout.

For the compound `Nc1nc2cc(-c3ccc[nH]c3=O)ccc2c2[nH]c(CCCO)nc12` [Compound 238], the EC50 (commonly the midpoint of the concentration-response curve) at TLR7 is above 100 µM; on TLR8, above 100 µM; on hNLRP3, 1 to 20 µM.

For `Nc1nc2cc(-c3ccc(F)cc3)ccc2c2[nH]c(CCCO)nc12` [Compound 212, 3-[4-amino-7-(4-fluorophenyl)-1H-imidazo[4,5-c]quinolin-2-yl]propan-1-ol], the EC50 was above 100 µM on TLR7, 20 to 100 µM on TLR8 and above 100 µM on hNLRP3.

Turning to `COC(=O)CCn1c(CCCO)nc2c(N)nc3cc(Br)ccc3c21` [Compound 142], the half-maximal effective concentration (EC50) on TLR7 was above 100 µM; on TLR8, above 100 µM; at hNLRP3 it was 1 to 20 µM.

For the compound `Nc1nc2cc(Cl)c(Cl)cc2c2[nH]c(CCCO)nc12` [Compound 126], the results for the EC50 on TLR7, at TLR8 and on hNLRP3 were above 100 µM, above 100 µM and 1 to 20 µM, respectively.

For `CC(C)(C)OC(=O)NC1CCC(c2nc3c(N)nc4cc(Br)ccc4c3[nH]2)CC1` (stereo not drawn) [Compound 110], the values for the EC50 at TLR7, on TLR8 and at hNLRP3 were above 100 µM, above 100 µM and 1 to 20 µM, respectively.

Turning to `CN1CCC[C@H](c2nc3c(N)nc4ccccc4c3[nH]2)C1` [Compound 138], the EC50 was above 100 µM at TLR7, above 100 µM on TLR8 and 20 to 100 µM at hNLRP3.

As to `Cc1ncc(-c2ccc3c(c2)nc(N)c2nc(CCCOCc4ccccc4)[nH]c23)cn1` [Compound 154, 7-(2-methylpyrimidin-5-yl)-2-(3-phenylmethoxypropyl)-1H-imidazo[4,5-c]quinolin-4-amine], the EC50 is above 100 µM on TLR7, above 100 µM at TLR8 and 1 to 20 µM on hNLRP3.

In the case of `Nc1nc2cc(C3CCCCC3)ccc2c2[nH]c(CCCO)nc12` [Compound 174, 3-(4-amino-7-cyclohexyl-1H-imidazo[4,5-c]quinolin-2-yl)propan-1-ol], the concentration for a half-maximal effect (EC50) was above 100 µM on TLR7, above 100 µM at TLR8 and 20 to 100 µM at hNLRP3.

As for `Nc1nc2cc(-c3ccccc3)ccc2c2[nH]c(C3CCNCC3)nc12` [Compound 222], the results for the EC50 at TLR7, on TLR8 and at hNLRP3 were above 100 µM, above 100 µM and 1 to 20 µM, respectively.

Regarding `Nc1nc2cc(N3CCCC3)ccc2c2[nH]c(CCCO)nc12` [Compound 166, 3-(4-amino-7-pyrrolidin-1-yl-1H-imidazo[4,5-c]quinolin-2-yl)propan-1-ol], the EC50 on TLR7, on TLR8 and on hNLRP3 was above 100 µM throughout.

As for `Cc1ccc2c(c1)nc(N)c1nc(CCCO)[nH]c12` [Compound 111], the results for the EC50 at TLR7, at TLR8 and on hNLRP3 were above 100 µM, 20 to 100 µM and 1 to 20 µM, respectively.

Regarding `Nc1nc2cc(N3CCOCC3)ccc2c2[nH]c(CCCO)nc12` [Compound 168, 3-(4-amino-7-morpholin-4-yl-1H-imidazo[4,5-c]quinolin-2-yl)propan-1-ol], the concentration giving a half-maximal response (EC50) on TLR7, at TLR8 and on hNLRP3 was above 100 µM throughout.

Regarding `CCCn1cc(-c2ccc3c(c2)nc(N)c2nc(CCCOCc4ccccc4)[nH]c23)cn1` [Compound 152, 2-(3-phenylmethoxypropyl)-7-(1-propylpyrazol-4-yl)-1H-imidazo[4,5-c]quinolin-4-amine], the EC50 on TLR7 is above 100 µM; at TLR8 it was above 100 µM; at hNLRP3 it was 20 to 100 µM.

Regarding `Cc1cnn(-c2ccc3c(c2)nc(N)c2nc(CCCO)[nH]c23)c1` [Compound 181, 3-[4-amino-7-(4-methylpyrazol-1-yl)-1H-imidazo[4,5-c]quinolin-2-yl]propan-1-ol], the EC50 at TLR7 was above 100 µM; at TLR8, above 100 µM; at hNLRP3 it was 1 to 20 µM.

For the compound `Nc1nc2cc(-c3cccnc3Cl)ccc2c2[nH]c(CCCO)nc12` [Compound 215, 3-[4-amino-7-(2-chloropyridin-3-yl)-1H-imidazo[4,5-c]quinolin-2-yl]propan-1-ol], the half-maximal effective concentration (EC50) was 20 to 100 µM at TLR7, 20 to 100 µM at TLR8 and above 100 µM on hNLRP3.

`Nc1nc2cc(C3CCOCC3)ccc2c2[nH]c(CCCO)nc12` [Compound 196, 3-[4-amino-7-(oxan-4-yl)-1H-imidazo[4,5-c]quinolin-2-yl]propan-1-ol]: the half-maximal effective concentration (EC50) on TLR7, at TLR8 and on hNLRP3 was above 100 µM throughout.

Take `Nc1nc2cc(-c3cncnc3)ccc2c2[nH]c(CCCO)nc12` [Compound 188, 3-(4-amino-7-pyrimidin-5-yl-1H-imidazo[4,5-c]quinolin-2-yl)propan-1-ol]: the 50% effective concentration (EC50) at TLR7 is above 100 µM; at TLR8, above 100 µM; on hNLRP3, 20 to 100 µM.

Turning to `Cc1cccc(-c2ccc3c(c2)nc(N)c2nc(CCCO)[nH]c23)c1` [Compound 205, 3-[4-amino-7-(3-methylphenyl)-1H-imidazo[4,5-c]quinolin-2-yl]propan-1-ol], the concentration giving a half-maximal response (EC50) is above 100 µM at TLR7, above 100 µM at TLR8 and 20 to 100 µM on hNLRP3.

With `Nc1nc2cc(-c3ccc(O)nc3)ccc2c2[nH]c(CCCO)nc12` [Compound 176, 5-[4-amino-2-(3-hydroxypropyl)-1H-imidazo[4,5-c]quinolin-7-yl]pyridin-2-ol], the EC50 on TLR7, on TLR8 and at hNLRP3 was above 100 µM in each case.

Regarding `COc1ccccc1-c1ccc2c(c1)nc(N)c1nc(CCCO)[nH]c12` [Compound 201, 3-[4-amino-7-(2-methoxyphenyl)-1H-imidazo[4,5-c]quinolin-2-yl]propan-1-ol], the concentration giving a half-maximal response (EC50) on TLR7, on TLR8 and on hNLRP3 was above 100 µM each time.

The values are drawn from patent US11072612B2, “NLRP3 modulators” (INNATE TUMOR IMMUNITY, INC., priority 2016, dated 2021).
